The NIST ThermoML archive (doi:10.1016/j.tca.2016.03.002)

How the values were obtained:
[1] = 100 kPa, Liquid; for viscosity: Capillary tube (Ostwald / Ubbelohde) method; for mass density: Vibrating tube method
[2] = refractive index (Na D-line) (dimensionless); settings: 100 kPa, Liquid, Standard Abbe refractometry
[3] = relative permittivity at various frequencies (dimensionless); settings: 100 kPa, Liquid, Frequency=30 MHz, Parallel plate capacitor
[4] = xn = mol fraction of the nth substance listed; settings: 100 kPa, Liquid, x1 = 1; for viscosity: Capillary tube (Ostwald / Ubbelohde) method; for mass density: Vibrating tube method
[5] = refractive index (Na D-line) (dimensionless); xn = mol fraction of the nth substance listed; settings: 100 kPa, Liquid, Standard Abbe refractometry, x1 = 1
[6] = relative permittivity at various frequencies (dimensionless); xn = mol fraction of the nth substance listed; settings: 100 kPa, Liquid, Frequency=30 MHz, Parallel plate capacitor, x1 = 1

NC1CCCCC1 [cyclohexylamine]
Settings	mass density, [1] [kg/m3]	refractive index, [2]	relative permittivity, [3]	viscosity, [1] [mPa·s]
293.15 K	866.86	1.45934	4.65	2.142
298.15 K	862.315	1.45663	4.56	1.908
303.15 K	857.774	1.45325	4.47	1.697

CO [methanol] + NC1CCCCC1
Settings	mass density, [4] [kg/m3]	refractive index, [5]	relative permittivity, [6]	viscosity, [4] [mPa·s]
293.15 K	791.414	1.32866	33.6	0.585
298.15 K	786.716	1.32682	32.62	0.545
303.15 K	782.032	1.32444	31.67	0.508

CO [methanol]
Settings	mass density, [1] [kg/m3]	refractive index, [2]	relative permittivity, [3]	viscosity, [1] [mPa·s]
293.15 K	791.414	1.32866	33.6	0.585
298.15 K	786.716	1.32682	32.62	0.545
303.15 K	782.032	1.32444	31.67	0.508
